In EP3461349A1, “NOVEL DITERPENE GLYCOSIDES AS SWEETENERS OR SWEETENER ENHANCER” (Analyticon Discovery GmbH, priority 2017, dated 2019):
Where two headings read alike, the source gives them in different places.

Assays:
[1] = literature; printed as "often >100x sweeter than sucrose"; cited from earlier work
[2] = test system: panel of 4 panelists; assay: Organoleptic test against sucrose and baiyunoside (taste panel); format: in vivo; set-up: key to compared to sucrose*: 3: sweeter than the control solution; 2: sweetness comparable with the control solution; 1: less sweet than the control solution but still sweet; conditions: for comment: cooling effect / comment: sweetness relative to Baiyunoside / comment: bitterness / off-taste / comment: lingering / persistence of sweet taste: 0.4 mg/ml (400 ppm) in non-carbonated mineral water; for comment: bitterness / off-taste / comment: lingering / persistence of sweet taste: compounds compared with Baiyunoside; for compared to sucrose*: sweetness score, 0.4 mg/ml (400 ppm) in non-carbonated mineral water vs sucrose 20 mg/ml, 4 panelists
Excerpt: Organoleptic test of the compounds of formula (I) against sucrose and baiyunoside

[3] = Solubility in non-carbonated mineral water at the test concentration; conditions: 0.4 mg/ml (400 ppm) in non-carbonated mineral water
[4] = quoted from Tanaka et al.; cited from earlier work

| Compound | sweetness relative to sucrose [1] | comment: cooling effect [2] | comment: sweetness relative to Baiyunoside [2] | comment: bitterness / off-taste [2] | comment: lingering / persistence of sweet taste [2] | compared to sucrose* [2] | solubility [3] | sweetness compared with the sucrose solution (in words) ([2]; Baiyunoside solution at nominal 0.4 mg/ml, not completely dissolved, vs sucrose 20 mg/ml) | duration of sweetness [4] | sweetness relative to sucrose [4] |
| --- | --- | --- | --- | --- | --- | --- | --- | --- | --- | --- |
| C[C@H](CC[C@@H](O[C@@H]1O[C@H](CO[C@@H]2O[C@H](CO)[C@@H](O)[C@H](O)[C@H]2O)[C@@H](O)[C@H](O)[C@H]1O[C@@H]1O[C@H](CO)[C@@H](O)[C@H](O)[C@H]1O)C(C)(C)O)[C@H]1CC[C@@]2(C)[C@@H]3CC=C4[C@@H](CC[C@H](O[C@@H]5O[C@H](CO[C@@H]6O[C@H](CO)[C@@H](O)[C@H](O)[C@H]6O)[C@@H](O)[C@H](O)[C@H]5O)C4(C)C)[C@]3(C)[C@H](O)C[C@]12C [mogroside V] | > 100 x |  |  |  |  |  |  |  |  |  |
| CC1=C(CCc2ccoc2)C2(C)CCC(OC3OC(COS(=O)(=O)O)C(O)C(O)C3O)C(C)(C)C2CC1 (centres unmarked) [Compound C, Baiyunol-3-glucosyl-6'-sulfate] |  | Shows a remarkable cooling effect. | Sweeter | less bitter | less lingering | 3 |  |  |  |  |
| CC1=C(CCc2ccoc2)C2(C)CCC(OC3OC(COS(=O)(=O)O)C(O)C(O)C3OC3OCC(O)C(O)C3O)C(C)(C)C2CC1 (centres unmarked) [Compound A, Baiyunoside-6'-sulfate] |  | Shows a remarkable cooling effect. | Sweeter | less bitter | less lingering | 3 |  |  |  |  |
| CC1=C(CCc2ccoc2)C2(C)CCC(OC3OC(CO)C(O)C(OS(=O)(=O)O)C3OC3OCC(O)C(O)C3O)C(C)(C)C2CC1 (centres unmarked) [Compound B, Baiyunoside-3'-sulfate] |  | Shows a remarkable cooling effect. | Sweeter | less bitter | less lingering | 3 |  |  |  |  |
| Baiyunol-3-(2'-arabinopyranosyl)-glucoside [Compound D] |  | Shows a remarkable cooling effect. | Sweeter | as bitter as Baiyunoside | less lingering | 3 | not completely soluble but better soluble than Baiyunoisde |  |  |  |
| C[C@H](CC[C@@H](O[C@@H]1O[C@H](CO[C@@H]2O[C@H](CO)[C@@H](O)[C@H](O)[C@H]2O)[C@@H](O)[C@H](O)[C@H]1O[C@@H]1O[C@H](CO)[C@@H](O)[C@H](O)[C@H]1O)C(C)(C)O)[C@H]1CC[C@@]2(C)[C@@H]3CC=C4[C@@H](CC[C@H](O[C@@H]5O[C@H](CO)[C@@H](O[C@@H]6O[C@H](CO)[C@@H](O)[C@H](O)[C@H]6O)[C@H](O)[C@H]5O)C4(C)C)[C@]3(C)[C@H](O)C[C@]12C [iso-mogroside V] | > 100 x |  |  |  |  |  |  |  |  |  |
| Baiyunoside [reference compound] |  |  |  | bitter and licorice off-taste | very long lingering and persistent sweet taste |  | not completely soluble | comparable to the sweetness of the sucrose solution | more than one h | about 500 times |
